The values below come from patent publication US8327467B2, “Anthranilic acid derivative or salt thereof” (Toyama Chemical Co., Ltd., priority 2005, dated 2012).

SMILES strings stand for the structures. Counter-ions that a name gives are not always drawn.

The test system of this experiment is MMP-13. Kind of experiment: MMP-13 production inhibition test. The class given is cell-based. Conditions: 30 μmol/L; human cartilage derived cell line SW1353, IL-1β 10 ng/mL, 16 hours after stimulation, MMP-13 in culture supernatant by ELISA; read-out: Inhibition rate (%) at 30 μmol/L. The protocol: MMP-13 Production Inhibition Test
6.8×10^3 human cartilage derived cell line SW1353 cells were suspended in 100 μL of Dulbecco modified Eagle's medium supplemented with 10% fetal calf serum, plated on 96-well plates and cultured for 3 days. After the culture medium was changed to Dulbecco modified Eagle's medium containing 0.2% lactalbumin hydrolysate and the cells were cultured for 6 hours, test compounds were added and then IL-1β was added to obtain the final concentration of 10 ng/mL 1 hour later. 16 hours after the stimulation, supernatant was collected and the amount of MMP-13 in the culture supernatant was determined with an ELISA kit (Amersham). The inhibition rate was calculated from the amount of MMP-13 in the presence of a test compound assuming that the amount of MMP-13 was 100% in the absence of the test compound.
In general terms: In an ELISA, binding on a coated surface is turned into a signal by an enzyme label.
As for `CN(C)c1ccccc1Nc1cc(-c2ccccc2)ccc1C(=O)O` [Example 372, 2-((2-(dimethylamino)phenyl)amino)-4-phenylbenzoic acid], the inhibition at 30 µM worked out at 97%.

On to `COc1ccc(-c2ccc(C(=O)O)c(Nc3ccc(F)cc3)c2)cc1` [Example 9, 2-(4-fluoroanilino)-4-(4-methoxyphenyl)benzoic acid], for which the inhibition at 30 µM was found to be 93%.

With `CC(=O)Nc1cccc(CCc2ccc(C(=O)O)c(Nc3ccc(F)cc3)c2)c1` [Example 262, 4-(2-(3-Acetamidophenyl)ethyl)-2-(4-fluoroanilino)benzoic acid], the inhibition at 30 µM was 80%.

As to `Cc1ccccc1Nc1cc(-c2ccc(NS(C)(=O)=O)cc2)ccc1C(=O)O` [Example 273, 4-(4-(methanesulfonamido)phenyl)-2-(2-methylanilino)benzoic acid], the inhibition at 30 µM is 83%.

Consider `O=C(O)c1ccc(-c2ccc3[nH]ccc3c2)cc1Nc1ccc(F)cc1` [Example 13, 2-(4-Fluoroanilino)-4-(1H-indol-5-yl)benzoic acid], for which the inhibition at 30 µM turned out to be 95%.

With `O=C(O)c1ccc(-c2ccccc2)cc1Nc1ccccc1Cl` [Example 343, 2-(2-Chloroanilino)-4-phenylbenzoic acid], the inhibition at 30 µM was found to be 98%.

Take `O=C(O)c1ccc(Oc2ccccc2)cc1NCc1ccc(F)cc1` [Example 49, 2-(4-Fluorobenzylamino)-4-phenoxybenzoic acid]: the inhibition at 30 µM is 85%.

On to `O=C(O)c1ccc(Oc2ccccc2)cc1Nc1ccccc1` [Example 46, 2-Anilino-4-phenoxybenzoic acid], for which the inhibition at 30 µM came out at 93%.

Regarding `O=C(O)c1ccc(CCc2ccc3c(c2)OCCO3)cc1Nc1cccc(O)c1` [Example 293, 4-(2-(2,3-dihydro[1,4]benzodioxin-6-yl)ethyl)-2-((3-hydroxyphenyl)amino)benzoic acid], the inhibition at 30 µM turned out to be 87%.

For `O=C(O)c1ccc(-c2ccc(OC(F)(F)F)cc2)cc1Nc1ccc(F)cc1` [Example 222, 2-(4-Fluoroanilino)-4-(4-(trifluoromethoxy)phenyl)benzoic acid], the inhibition at 30 µM stood at 98%.

Take `O=C(O)c1ccc(NS(=O)(=O)c2ccccc2)cc1Nc1ccc(F)cc1` [Example 91, 4-(Benzenesulfonamido)-2-(4-fluoroanilino)benzoic acid]: the inhibition at 30 µM turned out to be 53%.

On to `O=C(O)c1ccc(/C=C/c2ccc(F)cc2)cc1Nc1ccc(F)cc1` [Example 132, 2-(4-Fluoroanilino)-4-((E)-2-(4-fluorophenyl)vinyl)benzoic acid], for which the inhibition at 30 µM amounted to 95%.

With `CC(=O)c1ccc(-c2ccc(C(=O)O)c(Nc3ccc(F)cc3)c2)cc1` [Example 15, 4-(4-Acetylphenyl)-2-(4-fluoroanilino)benzoic acid], the inhibition at 30 µM was found to be 91%.

As to `O=C(O)c1ccc(CCc2ccccc2)cc1Nc1ccc(C(F)(F)F)cc1` [Example 170, 4-Phenethyl-2-(4-(trifluoromethyl)anilino)benzoic acid], the inhibition at 30 µM was determined as 97%.

As to `O=C(O)c1ccc(-n2cnc3ccccc32)cc1Nc1ccc(F)cc1` [Example 248, 4-(1H-benzimidazol-1-yl)-2-(4-fluoroanilino)benzoic acid trifluoroacetate], the inhibition at 30 µM was found to be 84%.

On to `O=C(O)c1ccc(Oc2ccccc2)cc1Nc1ccc2c(c1)OCO2` [Example 43, 2-((Benzo-1,3-dioxol-5-yl)amino)-4-phenoxybenzoic acid], for which the inhibition at 30 µM came out at 93%.

For the compound `O=C(O)c1ccc(-c2ccccc2)cc1Nc1cccc2cccnc12` [Example 340, 4-Phenyl-2-((quinolin-8-yl)amino)benzoic acid], the inhibition at 30 µM is 97%.

For `O=C(O)c1ccc(N2CCc3ccccc32)cc1Nc1ccc(F)cc1` [Example 243, 2-(4-fluoroanilino)-4-(indolin-1-yl)benzoic acid], the inhibition at 30 µM was found to be 97%.

Regarding `O=C(O)c1ccc(CCc2ccccc2)cc1Nc1cccc(Cl)c1` [Example 200, 2-(3-chloroanilino)-4-phenethylbenzoic acid], the inhibition at 30 µM is 97%.

For `O=C(O)c1ccc(NCCCc2ccccc2)cc1Nc1ccc(F)cc1` [Example 69, 2-(4-Fluoroanilino)-4-((3-phenylpropyl)amino)benzoic acid], the inhibition at 30 µM is 94%.

Consider `O=C(O)c1ccc(-c2ccccc2)cc1Nc1ccc(F)cc1` [Example 37, 2-(4-fluoroanilino)-4-phenylbenzoic acid], for which the inhibition at 30 µM worked out at 92%.

Take `O=C(O)c1ccc(/C=C/c2cccc(O)c2)cc1Nc1ccc(F)cc1` [Example 126, 2-(4-fluoroanilino)-4-((E)-2-(3-hydroxyphenyl)vinyl)benzoic acid]: the inhibition at 30 µM worked out at 94%.

Take `O=C(O)c1ccc(CCc2ccc(OC(F)(F)F)cc2)cc1Nc1ccc(F)cc1` [Example 259, 2-(4-fluoroanilino)-4-(2-(4-(trifluoromethoxy)phenyl)ethyl)benzoic acid]: the inhibition at 30 µM stood at 96%.

For `COc1cccc(CCc2ccc(C(=O)O)c(Nc3ccc(F)cc3)c2)c1` [Example 166, 2-(4-Fluoroanilino)-4-(2-(3-methoxyphenyl)ethyl)benzoic acid], the inhibition at 30 µM stood at 92%.

`O=C(O)c1ccc(CCCc2ccccc2)cc1Nc1ccc(F)cc1` [Example 81, 2-(4-fluoroanilino)-4-(3-phenylpropyl)benzoic acid]: the inhibition at 30 µM came out at 97%.

`O=C(O)c1ccc(CCc2ccccc2)cc1Nc1ccc2[nH]ccc2c1` [Example 331, 2-((1H-Indol-5-yl)amino)-4-phenethylbenzoic acid]: the inhibition at 30 µM was 97%.

`O=C(O)c1ccc(CCc2ccccc2)cc1Nc1ccc(-n2cccn2)cc1` [Example 363, 4-Phenethyl-2-(4-(1H-pyrazol-1-yl)phenylamino)benzoic acid]: the inhibition at 30 µM was determined as 96%.

With `O=C(O)c1ccc(Oc2ccccc2)cc1NC1CCCCC1` [Example 48, 2-(cyclohexylamino)-4-phenoxybenzoic acid], the inhibition at 30 µM came out at 85%.

With `COc1cccc(CCc2ccc(C(=O)O)c(Nc3ccccc3C)c2)c1` [Example 290, 4-(2-(3-Methoxyphenyl)ethyl)-2-(2-methylanilino)benzoic acid], the inhibition at 30 µM was 98%.

For `Cc1cccc(Nc2cc(CCc3ccccc3)ccc2C(=O)O)c1C` [Example 173, 2-(2,3-Dimethylanilino)-4-phenethylbenzoic acid], the inhibition at 30 µM stood at 97%.

On to `O=C(O)c1ccc(-c2ccccc2)cc1Nc1ccc(OC(F)(F)F)cc1` [Example 190, 4-Phenyl-2-(4-(trifluoromethoxy)anilino)benzoic acid], for which the inhibition at 30 µM was found to be 97%.

In the case of `Cc1ccccc1Nc1cc(-c2cccc(O)c2)ccc1C(=O)O` [Example 280, 4-(3-Hydroxyphenyl)-2-(2-methylanilino)benzoic acid], the inhibition at 30 µM is 90%.

For `O=C(O)c1ccc(CCc2ccccc2)cc1Nc1ccccc1C(F)(F)F` [Example 169, 4-phenethyl-2-(2-(trifluoromethyl)anilino)benzoic acid], the inhibition at 30 µM was 97%.

On to `Cc1ccc(Nc2cc(CCc3ccccc3)ccc2C(=O)O)c(C)c1` [Example 172, 2-(2,4-Dimethylanilino)-4-phenethylbenzoic acid], for which the inhibition at 30 µM was 97%.

Take `COc1ccccc1-c1ccc(C(=O)O)c(Nc2ccc(F)cc2)c1` [Example 3, 2-(4-fluoroanilino)-4-(2-methoxyphenyl)benzoic acid]: the inhibition at 30 µM was determined as 53%.

For `O=C(O)c1ccc(-c2ccccc2)cc1Nc1cccc(OC(F)(F)F)c1` [Example 191, 4-Phenyl-2-(3-(trifluoromethoxy)anilino)benzoic acid], the inhibition at 30 µM worked out at 97%.

With `O=C(O)c1ccc(/C=C/c2ccc3c(c2)OCO3)cc1Nc1ccc(F)cc1` [Example 140, 4-((E)-2-(Benzo-1,3-dioxol-5-yl)vinyl)-2-(4-fluoroanilino)benzoic acid], the inhibition at 30 µM stood at 93%.

With `CS(=O)(=O)c1ccc(-c2ccc(C(=O)O)c(Nc3ccc(F)cc3)c2)cc1` [Example 11, 2-(4-fluoroanilino)-4-(4-(methanesulfonyl)phenyl)benzoic acid], the inhibition at 30 µM stood at 62%.

In the case of `O=C(O)c1ccc(-c2ccc3c(c2)OCO3)cc1Nc1ccc(F)cc1` [Example 7, 4-(Benzo-1,3-dioxol-5-yl)-2-(4-fluoroanilino)benzoic acid], the inhibition at 30 µM turned out to be 95%.

In the case of `COc1ccc(-c2ccc(C(=O)O)c(Nc3ccc(F)cc3)c2)cc1OC` [Example 209, 4-(3,4-Dimethoxyphenyl)-2-(4-fluoroanilino)benzoic acid], the inhibition at 30 µM worked out at 82%.

Regarding `COc1ccc(CCc2ccc(C(=O)O)c(Nc3ccc(F)cc3)c2)cc1` [Example 160, 2-(4-Fluoroanilino)-4-(2-(4-methoxyphenyl)ethyl)benzoic acid], the inhibition at 30 µM stood at 93%.

As to `CS(=O)(=O)Nc1ccc(-c2ccc(C(=O)O)c(Nc3ccc(F)cc3)c2)cc1` [Example 12, 2-(4-Fluoroanilino)-4-(4-(methanesulfonamido)phenyl)benzoic acid], the inhibition at 30 µM was determined as 75%.

With `Cc1ccc(CCc2ccc(C(=O)O)c(Nc3ccc(F)cc3)c2)cc1` [Example 252, 2-(4-Fluoroanilino)-4-(2-(4-methylphenyl)ethyl)benzoic acid], the inhibition at 30 µM came to 96%.

As for `O=C(O)c1ccc(Nc2ccccc2)cc1Nc1ccc(F)cc1` [Example 63, 4-anilino-2-(4-fluoroanilino)benzoic acid], the inhibition at 30 µM is 67%.

`O=C(O)c1ccc(CCc2ccccc2)cc1Nc1ccccc1OC(F)(F)F` [Example 199, 4-Phenethyl-2-(2-(trifluoromethoxy)anilino)benzoic acid]: the inhibition at 30 µM was 97%.
